Here are results for five molecules from patent publication US7368461B2 (AstraZeneca AB, priority 2001, dated 2008).

In assay [1] the test system is BANK-induced bladder contraction. The assay is described as follows: BANK-induced bladder contraction in anesthetized guinea pigs. The note with it: for Inhibition of BANK-mediated GP bladder contraction (% Inhibition mediated by 52 nM/kg administered orally): anesthetized female guinea pigs, 52 nM/kg orally by gavage 1 hr before BANK 3 nmol/kg iv, mean ± S.E.M. It counts as in vivo, guinea pig. On the procedure: BANK-Induced Bladder Contraction in Anesthetized Guinea Pigs:
Female guinea pigs (300-450 g) were anesthetized by intramuscular administration of ketamine/xylazine mixture (3/10 mg/kg, respectively). The jugular vein was catheterized and the distal end of the catheter connected to a syringe for administration of compound where appropriate. Subsequently, the bladder was exposed through a midline abdominal incision, the ureters tied with 4-0 silk suture approximately 2 cm above the bladder, and cut above the ligature to allow drainage from the kidneys. Cannula were passed through the proximal urethra and bladder sphincter into the bladder lumen. The bladder was manually emptied, infused with 0.3 mL saline, and the catheter attached to a Gould p23 ID pressure transducer for recording changes in bladder pressure. An equilibration period of approximately 15 min was allowed for stabilization of the animals following surgical preparation. Thiorphan (10 mg/kg iv) was administered 15 minutes before agonist exposure to inhibit neutral endopeptidase 3.4.24.11.
The response was allowed to decay during a 15 min equilibration period before intravenous administration of test compound ([…], 5% PEG 400-saline vehicle). An additional 15 min equilibration period elapsed before administration of an equivalent dose of BANK was repeated. Preliminary studies were performed to establish equivalence of bladder contractile responses to multiple administrations of BANK. Effects were calculated as the percentage difference between the response to BANK in the presence and absence of test compounds.
To establish the oral effect of test compounds, animals were administered the test compounds (52 nmol/kg, 5% PEG 400-saline vehicle) by gavage 1 hr before administration of BANK. This was followed by intravenous administration of BANK (3 nmol/kg). Bladder contraction occurring in the presence or absence of test compound was recorded as an increase in intravesical bladder pressure on a Grass 7D Polygraph and expressed as percent inhibition of the BANK-mediated effect. Duration of action studies were performed following oral administration of test compounds ([…], 5% PEG 400-saline vehicle) at different times prior to administration of BANK. Responses were calculated as the percentage difference between the response to BANK in the presence of test compound compared with sham-treated controls. For all studies, each animal was administered a single dose of test compound. Experimental results were expressed as the mean plus or minus the Standard Error of the Mean (±S.E.M) percentage change from basal level.
The ability of compounds disclosed herein to inhibit bladder contractions induced with BANK is shown by the results disclosed in Table 1.

The target of another assay is T1, human NK2 receptors (Homo sapiens, UniProt P21452).
T1 construct: expressed in transfected cells; host or cells: MEL cells (murine erythroleukemia), membranes
T1 sequence (P21452 1-398): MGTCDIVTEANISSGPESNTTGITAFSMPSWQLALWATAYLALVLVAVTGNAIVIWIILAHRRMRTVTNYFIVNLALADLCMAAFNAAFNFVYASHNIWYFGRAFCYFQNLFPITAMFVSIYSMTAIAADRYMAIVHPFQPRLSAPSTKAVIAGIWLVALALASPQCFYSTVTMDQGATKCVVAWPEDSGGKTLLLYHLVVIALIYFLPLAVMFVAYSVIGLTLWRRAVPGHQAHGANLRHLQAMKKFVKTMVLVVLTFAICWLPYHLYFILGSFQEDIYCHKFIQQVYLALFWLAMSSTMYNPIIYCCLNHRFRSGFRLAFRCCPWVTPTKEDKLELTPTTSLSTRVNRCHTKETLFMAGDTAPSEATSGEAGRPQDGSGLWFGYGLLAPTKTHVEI
The assay is described as follows: Receptor binding assay with [3H]NKA in membranes of MEL cells expressing cloned human NK2 receptors. The note with it: cloned hNK2 in MEL cell membranes; for Ki: read-out: hNK2 (Ki expressed as -Log Molar) (converted). On the procedure: (§1) Preparation of Membranes from MEL Cells Transfected with Cloned Human NK1 or NK2 receptors:
(§2) The cloning of the human lung NK1 and NK2 receptors was achieved as described by Hopkins, et al., Biochem. Biophys. Res. Commun. 180: 1110-1117 (1991), and Graham, et al., Biochem. Biophys. Res. Commun. 177: 8-16 (1991). Heterologous expression and scale-up growth of MEL cells transfected with human tachykinin receptors was performed as described for NK2 receptors by Aharony, et al., Mol. Pharmacol. 45: 9-19, 1994.
(§3) Membranes from recombinant MEL cells expressing NK1 or NK2 receptors were prepared as described by Hopkins, et al., (1991). Briefly, cells were homogenized at 4° C. (Brinkman PT-20 Polytron, setting 3, with one 15 sec burst on ice), in a buffer consisting of 50 mM Tris-HCl (pH7.4), 5 mM KCl, 120 mM NaCl, 10 mM EDTA and containing several protease inhibitors (1 mM phenylmethylsulfonylfluoride; 0.1 mg/ml soybean trypsin inhibitor, and 1 mM iodoacetamide). The homogenate was centrifuged at 1200×g for 45 min at 4° C. to remove cell debris. The supernatant was centrifuged at 48,000×g for 45 min at 4° C. The pellet was resuspended with a glass-Teflon motorized homogenizer in 30 volumes of ice-cold 50 mM Tris-HCl (pH 7.4) buffer.
(§4) Ligand binding assays with [^3H]NKA in MEL cells expressing cloned NK2 receptors or [^3H]SP in MEL cells expressing cloned NK1 receptors, were conducted generally as described by Aharony, et al., Mol. Pharmacol. 45: 9-19, 1994, Aharony, et al., Neuropeptides 23: 121-130 (1992) and Aharony, et al., J. Pharmacol. Exp. Ther. 259: 146-155(1991). In brief, incubations were carried out in assay buffer containing membranes, test compounds, and [^3H] ligand (1.0-1.5 nM). In competition experiments, mixtures (0.315 mL) containing various concentrations of competing agents (agonists, antagonists, or vehicle), were incubated at 25° C. for 30 min., with or without 1 μM unlabeled homogenous ligand (NKA or SP), to define non-specific binding. Reactions were initiated by adding membranes (0.1-0.15 mg protein/final concentration) and were conducted in duplicate. Saturation and kinetic experiments were conducted in triplicate. Separation of receptor-bound and free ligand was accomplished by dilution with 1 mL of wash buffer (20 mM Tris-HCl, pH 7.5) followed immediately by vacuum filtration with a total volume of 10 mL of wash buffer (utilizing a Brandel Cell Harvester MB-48R with Whatman GF/B filters presoaked in 0.1% polyethylenimine).
(§5) The ability of compounds disclosed herein to inhibit the binding of [^3H] ligand is shown by the results disclosed in Table 1.

The target of a further assay is T2, human NK1 receptors (Homo sapiens, UniProt P25103).
T2 construct: expressed in transfected cells; host or cells: MEL cells (murine erythroleukemia), membranes
The assay can be described thus: Receptor binding assay with [3H]SP in membranes of MEL cells expressing cloned human NK1 receptors. The note with it: cloned hNK1 in MEL cell membranes; for Ki: read-out: hNK1 (Ki expressed as -Log Molar) (converted). As to the method:
as §1, §2, §3, §4, §5

SMILES strings stand for the structures. Several values for one entry are separate records, joined by “and”; a condition that tells them apart may be missing. Equal values may be shown once.

T2 sequence (P25103 whole entry): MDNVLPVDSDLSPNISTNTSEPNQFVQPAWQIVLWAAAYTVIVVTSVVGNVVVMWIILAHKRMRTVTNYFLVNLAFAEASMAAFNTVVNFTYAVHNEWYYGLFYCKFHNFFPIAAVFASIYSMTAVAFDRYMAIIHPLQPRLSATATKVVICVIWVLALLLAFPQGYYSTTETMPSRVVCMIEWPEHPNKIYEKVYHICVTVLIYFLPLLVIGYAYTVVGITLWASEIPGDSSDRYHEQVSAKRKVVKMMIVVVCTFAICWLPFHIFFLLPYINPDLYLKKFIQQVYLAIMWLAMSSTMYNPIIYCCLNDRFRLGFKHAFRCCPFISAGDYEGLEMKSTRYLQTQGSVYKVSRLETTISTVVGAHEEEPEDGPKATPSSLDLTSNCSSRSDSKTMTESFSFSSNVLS

Take `CN(C[C@@H](CCN1CCC(N2CCCCC2=O)CC1)c1ccc(Cl)c(Cl)c1)C(=O)c1ccccc1F` [Example 1, (S)—N-[2-(3,4-Dichloro-phenyl)-4-(2-oxo-[1,4′]bipiperidinyl-1′-yl)-butyl]-2-fluoro-N-methyl-benzamide]: the “Inhibition of BANK-mediated GP bladder contraction (% Inhibition mediated by 52 nM/kg administered orally)” value in assay [1] is 80% and 80 ± 6%. In addition, the figures for the Ki on human NK2 receptors and at human NK1 receptors were 1.45 nM and 91.2 nM, respectively.
Consider `CCNC(=O)C1(N2CCCCC2=O)CCN(CC[C@H](CN(C)C(=O)c2ccccc2)c2ccc(Cl)c(Cl)c2)CC1` [Example 6], for which, in assay [1], the “Inhibition of BANK-mediated GP bladder contraction (% Inhibition mediated by 52 nM/kg administered orally)” value is recorded as −65 ± 58%. The Ki (commonly a dissociation constant, usually derived from enzyme kinetics or from competition with a known ligand) at human NK2 receptors was 0.2 nM. Also, on human NK1 receptors (10 μM), at 10 µM the inhibition was 84%.
Take `CN(C[C@@H](CCN1CCC(N2CCCCC2=O)CC1)c1ccc(Cl)c(Cl)c1)C(=O)c1ccccc1` [Example 5, (S)—N-[2-(3,4-Dichlorophenyl)-4-[4-(2-oxo-piperidin-1-yl)piperidino]butyl]-N-methylbenzamide]: the inhibitory constant (Ki) is 3.31 nM at human NK2 receptors and 427 nM on human NK1 receptors.
Regarding `CN(C[C@@H](CCN1CCC(N2CCCCC2=S)CC1)c1ccc(Cl)c(Cl)c1)C(=O)c1ccccc1` [Example 2, (S)—N-[2-(3,4-Dichlorophenyl)-4-[4-(2-thio-piperidin-1-yl)piperidino]butyl]-N-methylbenzamide], in assay [1], the “Inhibition of BANK-mediated GP bladder contraction (% Inhibition mediated by 52 nM/kg administered orally)” value stood at 42 ± 13%. Also, the “hNK2 (Ki expressed as -Log Molar)” value on human NK2 receptors is 8.73 -Log Molar. In addition, the “hNK1 (Ki expressed as -Log Molar)” value at human NK1 receptors is reported as 7.22 -Log Molar.
As to `CN(C[C@@H](CCN1CCC(N2CCCCC2=O)CC1)c1ccc(Cl)c(Cl)c1)C(=O)c1ccc(F)cc1` [Example 4, (S)—N-[2-(3,4-Dichlorophenyl)-4-[4-(2-oxo-piperidin-1-yl)piperidino]butyl]-N-methyl-4-fluorobenzamide], in assay [1], the “Inhibition of BANK-mediated GP bladder contraction (% Inhibition mediated by 52 nM/kg administered orally)” value was −28 ± 45%. Also, the “increase in the bladder contraction induced by BANK” value in assay [1] (guinea pig, as shown in Table 1 (52 nM/kg orally)) was determined as 28%.
